The source made the active and inactive calls.
Tests used:
[1] = species on record: Mus musculus; assay: Effect on behavioral activity in Albino mouse assessed as inhibition of diazepam-induced anesthesia at 0.2 ml/10 g by hippocratic screen; format: functional, organism-based
[2] = species on record: Mus musculus; assay: Effect on behavioral activity in Albino mouse assessed as inhibition of diazepam-induced loss of righting reflex at 0.2 ml/10 g after 2 hrs by hippocratic screen; format: functional, organism-based
[3] = species on record: Mus musculus; assay: CNS toxicity in Albino mouse assessed as decrease in motor activity at 0.2 ml/10 g by hippocratic screen; format: organism-based; details: in vivo
[4] = target: T1, GABA-A receptor; alpha-1/beta-2/gamma-2 (Homo sapiens, UniProt P14867+P18507+P47870); assay: Displacement of [3H]flunitrezepam from GABA-A alpha-1-beta-2-gamma-2 receptor by liquid scintillation counting; format: protein-complex assay
T1 sequence (P14867 whole entry): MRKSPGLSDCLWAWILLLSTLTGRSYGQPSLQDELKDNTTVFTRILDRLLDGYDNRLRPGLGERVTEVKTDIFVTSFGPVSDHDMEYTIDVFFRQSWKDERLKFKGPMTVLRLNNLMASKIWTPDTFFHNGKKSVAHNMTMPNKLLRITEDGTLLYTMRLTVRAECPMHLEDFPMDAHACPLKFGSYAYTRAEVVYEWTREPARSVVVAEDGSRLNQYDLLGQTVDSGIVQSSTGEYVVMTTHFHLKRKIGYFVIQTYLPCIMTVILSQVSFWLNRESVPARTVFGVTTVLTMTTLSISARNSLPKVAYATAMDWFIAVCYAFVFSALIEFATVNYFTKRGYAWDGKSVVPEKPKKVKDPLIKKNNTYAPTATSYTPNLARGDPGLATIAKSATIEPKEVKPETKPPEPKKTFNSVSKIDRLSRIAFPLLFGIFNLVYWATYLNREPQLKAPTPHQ
T1 sequence (P47870 whole entry): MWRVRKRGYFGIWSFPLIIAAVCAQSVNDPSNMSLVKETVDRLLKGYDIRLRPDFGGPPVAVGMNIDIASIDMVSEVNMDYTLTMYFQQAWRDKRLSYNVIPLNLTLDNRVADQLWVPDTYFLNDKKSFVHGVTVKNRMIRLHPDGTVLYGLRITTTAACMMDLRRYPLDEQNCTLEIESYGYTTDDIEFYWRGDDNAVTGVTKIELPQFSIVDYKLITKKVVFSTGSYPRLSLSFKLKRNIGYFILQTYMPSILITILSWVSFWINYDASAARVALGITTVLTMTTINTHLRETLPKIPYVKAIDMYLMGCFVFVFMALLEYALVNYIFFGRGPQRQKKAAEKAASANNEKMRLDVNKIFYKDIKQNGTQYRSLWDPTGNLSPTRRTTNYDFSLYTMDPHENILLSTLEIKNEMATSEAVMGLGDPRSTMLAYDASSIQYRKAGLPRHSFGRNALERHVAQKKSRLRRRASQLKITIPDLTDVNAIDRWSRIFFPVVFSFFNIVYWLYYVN
T1 sequence (P18507 whole entry): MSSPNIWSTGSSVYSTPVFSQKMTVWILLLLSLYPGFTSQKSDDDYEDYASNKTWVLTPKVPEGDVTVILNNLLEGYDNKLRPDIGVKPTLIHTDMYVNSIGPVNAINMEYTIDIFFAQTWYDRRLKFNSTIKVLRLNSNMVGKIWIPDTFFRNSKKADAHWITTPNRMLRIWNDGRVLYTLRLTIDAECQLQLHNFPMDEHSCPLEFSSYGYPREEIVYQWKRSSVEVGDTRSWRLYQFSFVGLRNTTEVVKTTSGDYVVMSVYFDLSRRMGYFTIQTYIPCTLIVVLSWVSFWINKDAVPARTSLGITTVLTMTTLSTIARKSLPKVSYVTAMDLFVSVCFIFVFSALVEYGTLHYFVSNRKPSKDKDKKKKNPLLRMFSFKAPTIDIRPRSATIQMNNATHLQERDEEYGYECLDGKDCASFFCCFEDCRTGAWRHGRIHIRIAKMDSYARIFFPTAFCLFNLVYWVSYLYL

[5] = species on record: Mus musculus; assay: CNS toxicity in Albino mouse assessed as change in respiratory rate at 0.2 ml/10 g by hippocratic screen; format: organism-based; details: in vivo
[6] = system: Mus musculus; assay: CNS toxicity in Albino mouse assessed as anesthetic response at 0.2 ml/10 g by hippocratic screen; format: organism-based; details: in vivo
[7] = species on record: Mus musculus; assay: Effect on behavioral activity in Albino mouse assessed as inhibition of diazepam-induced decrease in respiratory rate at 0.2 ml/10 g by hippocratic screen; format: functional, organism-based
[8] = species on record: Mus musculus; assay: CNS toxicity in Albino mouse assessed as loss of screen grip at 0.2 ml/10 g by hippocratic screen; format: organism-based; details: in vivo
[9] = species on record: Mus musculus; assay: CNS toxicity in Albino mouse assessed as loss of righting reflex at 0.2 ml/10 g by hippocratic screen; format: organism-based; details: in vivo
[10] = species on record: Mus musculus; assay: Effect on behavioral activity in Albino mouse assessed as inhibition of diazepam-induced pinnal reflex at 0.2 ml/10 g by hippocratic screen; format: functional, organism-based
[11] = species on record: Mus musculus; assay: Effect on behavioral activity in Albino mouse assessed as inhibition of diazepam-induced ataxia at 0.2 ml/10 g after 5 mins by hippocratic screen; format: functional, organism-based
[12] = target: T2, GABA A receptor alpha-2/beta-2/gamma-2 (Homo sapiens, UniProt P18507+P47869+P47870); assay: Displacement of [3H]flunitrezepam from GABA-A alpha-2-beta-2-gamma-2 receptor by liquid scintillation counting; format: protein-complex assay
T2 sequence (P47870 whole entry): T1 sequence (P47870 whole entry)
T2 sequence (P18507 whole entry): T1 sequence (P18507 whole entry)
T2 sequence (P47869 whole entry): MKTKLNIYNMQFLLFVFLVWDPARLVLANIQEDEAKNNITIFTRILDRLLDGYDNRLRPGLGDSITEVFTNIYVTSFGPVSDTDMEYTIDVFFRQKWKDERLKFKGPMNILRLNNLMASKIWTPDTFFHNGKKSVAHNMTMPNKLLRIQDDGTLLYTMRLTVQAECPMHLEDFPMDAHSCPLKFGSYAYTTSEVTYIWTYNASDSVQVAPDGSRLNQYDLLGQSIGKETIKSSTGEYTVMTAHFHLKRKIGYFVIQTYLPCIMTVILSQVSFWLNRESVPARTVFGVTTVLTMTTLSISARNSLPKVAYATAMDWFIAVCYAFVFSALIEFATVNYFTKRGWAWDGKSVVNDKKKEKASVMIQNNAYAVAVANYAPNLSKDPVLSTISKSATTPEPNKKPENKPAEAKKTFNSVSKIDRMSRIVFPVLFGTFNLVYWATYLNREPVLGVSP

[13] = target: T3, GABA A receptor alpha-3/beta-2/gamma-2 (Homo sapiens, UniProt P18507+P34903+P47870); assay: Displacement of [3H]flunitrezepam from GABAA alpha-3-beta-2-gamma-2 receptor by liquid scintillation counting; format: protein-complex assay
T3 sequence (P47870 whole entry): T1 sequence (P47870 whole entry)
T3 sequence (P18507 whole entry): T1 sequence (P18507 whole entry)
T3 sequence (P34903 whole entry): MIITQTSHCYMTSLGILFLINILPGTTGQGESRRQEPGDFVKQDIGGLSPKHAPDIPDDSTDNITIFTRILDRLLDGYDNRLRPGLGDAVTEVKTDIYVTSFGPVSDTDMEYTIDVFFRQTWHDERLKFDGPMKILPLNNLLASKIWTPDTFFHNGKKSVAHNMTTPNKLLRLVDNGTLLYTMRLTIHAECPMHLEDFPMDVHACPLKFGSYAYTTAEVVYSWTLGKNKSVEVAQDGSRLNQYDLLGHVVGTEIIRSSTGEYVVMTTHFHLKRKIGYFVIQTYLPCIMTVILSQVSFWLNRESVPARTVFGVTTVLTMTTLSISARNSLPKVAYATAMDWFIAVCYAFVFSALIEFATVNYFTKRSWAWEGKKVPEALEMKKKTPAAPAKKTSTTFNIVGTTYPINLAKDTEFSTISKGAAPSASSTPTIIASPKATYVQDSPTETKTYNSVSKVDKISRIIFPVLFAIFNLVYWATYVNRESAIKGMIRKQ

[14] = target: T4, Gamma-aminobutyric acid receptor subunit alpha-5 (Homo sapiens, UniProt P18507+P31644+P47870); assay: Displacement of [3H]flunitrezepam from GABAA alpha-5-beta-2-gamma-2 receptor by liquid scintillation counting
T4 sequence (P31644 whole entry): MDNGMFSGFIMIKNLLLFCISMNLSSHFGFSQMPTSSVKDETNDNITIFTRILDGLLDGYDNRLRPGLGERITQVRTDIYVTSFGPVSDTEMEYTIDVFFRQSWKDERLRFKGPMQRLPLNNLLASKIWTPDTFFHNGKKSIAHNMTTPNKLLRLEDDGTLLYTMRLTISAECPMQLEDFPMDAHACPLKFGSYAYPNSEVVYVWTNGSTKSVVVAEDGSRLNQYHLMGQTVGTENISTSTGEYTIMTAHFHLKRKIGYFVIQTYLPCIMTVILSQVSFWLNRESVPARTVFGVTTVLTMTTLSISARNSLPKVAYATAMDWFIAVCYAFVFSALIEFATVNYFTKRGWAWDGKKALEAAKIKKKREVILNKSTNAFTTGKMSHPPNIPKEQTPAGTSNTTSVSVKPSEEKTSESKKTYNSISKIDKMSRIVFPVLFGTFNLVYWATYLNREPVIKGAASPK

[15] = species on record: Mus musculus; assay: CNS toxicity in Albino mouse assessed as tremors at 0.2 ml/10 g by hippocratic screen; format: organism-based; details: in vivo
[16] = species on record: Mus musculus; assay: CNS toxicity in Albino mouse assessed as startle reaction at 0.2 ml/10 g by hippocratic screen; format: organism-based; details: in vivo
[17] = species on record: Mus musculus; assay: CNS toxicity in Albino mouse assessed as paralysis at 0.2 ml/10 g by hippocratic screen; format: organism-based; details: in vivo
[18] = species on record: Mus musculus; assay: CNS toxicity in Albino mouse assessed as ataxia at 0.2 ml/10 g by hippocratic screen; format: organism-based; details: in vivo
[19] = species on record: Mus musculus; assay: CNS toxicity in Albino mouse assessed as loss of analgesic activity at 0.2 ml/10 g by hippocratic screen; format: organism-based; details: in vivo
[20] = species on record: Mus musculus; assay: Effect on behavioral activity in Albino mouse assessed as inhibition of diazepam-induced loss of analgesia at 0.2 ml/10 g by hippocratic screen; format: functional, organism-based
[21] = species on record: Mus musculus; assay: Effect on behavioral activity in Albino mouse assessed as inhibition of diazepam-induced tremors at 0.2 ml/10 g by hippocratic screen; format: functional, organism-based
[22] = species on record: Mus musculus; assay: CNS toxicity in Albino mouse assessed as pinnal reflex at 0.2 ml/10 g by hippocratic screen; format: organism-based; details: in vivo
[23] = species on record: Mus musculus; assay: Effect on behavioral activity in Albino mouse assessed as inhibition of diazepam-induced startle reaction at 0.2 ml/10 g by hippocratic screen; format: functional, organism-based
[24] = species on record: Mus musculus; assay: Effect on behavioral activity in Albino mouse assessed as inhibition of diazepam-induced paralysis at 0.2 ml/10 g by hippocratic screen; format: functional, organism-based
[25] = species on record: Mus musculus; assay: Effect on behavioral activity in Albino mouse assessed as inhibition of diazepam-induced loss of screen grip at 0.2 ml/10 g by hippocratic screen; format: functional, organism-based
[26] = species on record: Mus musculus; assay: Effect on behavioral activity in Albino mouse assessed as inhibition of diazepam-induced decrease in motor activity at 0.2 ml/10 g for 10 to 15 mins by hippocratic screen; format: functional, organism-based
[27] = species on record: Mus musculus; assay: Effect on behavioral activity in Albino mouse assessed as inhibition of diazepam-induced ataxia at 0.2 ml/10 g for 15 mins by hippocratic screen; format: functional, organism-based
[28] = species on record: Mus musculus; assay: Effect on behavioral activity in Albino mouse assessed as inhibition of diazepam-induced decrease in motor activity at 0.2 ml/10 g for 2 hrs by hippocratic screen; format: functional, organism-based
[29] = target: Sodium-dependent dopamine transporter (Homo sapiens) (UniProt Q01959)
Chain of Sodium-dependent dopamine transporter (Homo sapiens) (Q01959 whole entry): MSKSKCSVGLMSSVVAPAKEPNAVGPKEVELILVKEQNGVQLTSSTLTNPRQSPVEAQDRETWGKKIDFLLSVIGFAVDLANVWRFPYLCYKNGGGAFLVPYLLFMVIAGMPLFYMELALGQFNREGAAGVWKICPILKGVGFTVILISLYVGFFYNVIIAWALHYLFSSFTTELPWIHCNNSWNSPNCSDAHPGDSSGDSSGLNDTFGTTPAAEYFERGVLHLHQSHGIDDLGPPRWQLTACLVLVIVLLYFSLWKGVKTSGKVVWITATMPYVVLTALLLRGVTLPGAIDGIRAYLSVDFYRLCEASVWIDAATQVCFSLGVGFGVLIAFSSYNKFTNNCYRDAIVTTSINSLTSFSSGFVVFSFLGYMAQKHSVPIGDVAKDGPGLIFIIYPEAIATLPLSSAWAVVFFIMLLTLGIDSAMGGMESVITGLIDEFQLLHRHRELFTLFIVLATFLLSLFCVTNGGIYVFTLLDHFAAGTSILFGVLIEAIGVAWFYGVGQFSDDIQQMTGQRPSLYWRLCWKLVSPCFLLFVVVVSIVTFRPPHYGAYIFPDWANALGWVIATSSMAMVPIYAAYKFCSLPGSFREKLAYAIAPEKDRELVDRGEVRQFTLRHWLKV
Description: Inhibition of DAT PDSP analysis

COc1ccc2c3c(oc2c1)C(=O)Nc1cccc[n+]1C3.[Cl-]
inactive: Activity [1] | Activity [2] | Activity [7] | Activity [11] | Activity [20] | Activity [21] | Activity [23] | Activity [24] | Activity [25]
746 nM: Ki [4]
1540 nM: Ki [13]
Non-toxic: Activity [3] | Activity [5] | Activity [6] | Activity [8] | Activity [9] | Activity [15] | Activity [16] | Activity [17] | Activity [18] | Activity [19] | Activity [22]
8.08 µM: Ki [12]
2360 nM: Ki [14]
active: Activity [10] | Activity [26]

COc1ccc2c3c(oc2c1)C(=O)Nc1cccc(C)[n+]1C3.[Cl-]
inactive: Activity [1] | Activity [2] | Activity [7] | Activity [10] | Activity [20] | Activity [21] | Activity [23] | Activity [24] | Activity [25]
Non-toxic: Activity [3] | Activity [5] | Activity [6] | Activity [8] | Activity [9] | Activity [15] | Activity [16] | Activity [17] | Activity [18] | Activity [19] | Activity [22]
active: Activity [27] | Activity [28]

NCCc1ccc(O)c(O)c1
> 10 µM: Ki [29]

Source: ChEMBL document CHEMBL1157703, “Synthesis, pharmacological studies and molecular modeling of some tetracyclic 1,3-diazepinium chlorides” (Bioorg Med Chem, 2010)
